# Data taken from patent EP3722295A1, “ANTI-VIRAL AND ANTI-CANCER ACTIVITY OF PYRIDO[2,3-D]PYRIMIDINE AND OXADIAZIOLE COMPOUNDS” (priority 2019, dated 2020).
# Like-named read-outs stand apart in the source and are kept apart here.
# Key:
# [1] = molecular target: T1, FOS:JUN (Homo sapiens, UniProt P01100+P05412); assay: FOS:JUN split luciferase interaction assay (specificity control); format: cell-based
# T1 construct: expressed in transfected cells
# [2] = system: A549 cells; assay: Cell viability assay (CellTiter-Glo, ATP levels) and observation of cell monolayers; format: cell-based, human
# Procedure: Cell viability was assessed using the CellTiter-Glo® One Solution Assay kit (Promega) according to the manufacturer's instruction.
# [3] = molecular target: T2, endogenous RED-SMU1 complex (Homo sapiens, UniProt Q2TAY7); assay: Western blot of steady-state levels of endogenous RED and SMU1 proteins; format: cell-based
# T2 construct: Effect on the steady-state levels of the endogenous RED and SMU1 proteins; endogenous in cells; host or cells: A549
# [4] = physchem
# [5] = system: WSN virus; assay: Production of infectious particles in A549 cells, plaque assay; format: cell-based, influenza A/WSN/33; conditions: 60 µM
# [6] = system: RSV-Firefly virus; assay: RSV-Firefly replication assay (specificity control); format: cell-based, human Respiratory Syncytial Virus
# [7] = molecular target: RED-SMU1 complex (Homo sapiens, UniProt Q2TAY7); assay: In cellulo split luciferase-based RED-SMU1 interaction assay; format: cell-based; conditions: for inhibition at 60 µM: A549 cells, relative to DMSO
# [8] = system: WSN-PB2-Nanoluc virus; format: cell-based, influenza A/WSN/33
# [9] = system: viral NS1 mRNA; assay: NS1 mRNA splicing, quantitative real-time PCR; format: cell-based, influenza A/WSN/33; conditions: WSN-infected A549 cells, 60 µM, 6 h incubation
# Procedure: (§1) Total RNA and poly(A)+ RNAs were extracted subsequently using the RNeasy Mini Kit (Qiagen) and Oligotex mRNA Mini kit (Qiagen), following the manufacturer's protocol. Reverse transcription (RT) was performed on 5-10 ng of total mRNA (or poly(A)+ RNA equivalent) using the Maxima First Strand cDNA Synthesis Kit (Thermo Scientific). Quantitative real-time PCR was performed on 2 µl of a 1/10 dilution of the RT reaction using the Luminaris Color Probe qPCR Master Mix (Thermo Scientific) and a Light Cycler 480 (Roche). The levels of NS1/NS2 and M1/M2 mRNAs were determined and normalized with respect to GAPDH mRNA levels using the protocol described in (23). The levels of PB2/PB2-S1 mRNAs were determined by semi-quantitative RT-PCR as described in (35).
# [10] = system: PB2 mRNA; assay: PB2 mRNA splicing, semi-quantitative RT-PCR; format: cell-based, influenza A/WSN/33; conditions: WSN-infected A549 cells, 60 µM
# Procedure: as §1
# [11] = system: viral M1 mRNAs; assay: M1 mRNA splicing, RT-qPCR; format: cell-based, influenza A/WSN/33; conditions: WSN-infected A549 cells, 60 µM
# Procedure: as §1
# T1 sequence (P01100 whole entry): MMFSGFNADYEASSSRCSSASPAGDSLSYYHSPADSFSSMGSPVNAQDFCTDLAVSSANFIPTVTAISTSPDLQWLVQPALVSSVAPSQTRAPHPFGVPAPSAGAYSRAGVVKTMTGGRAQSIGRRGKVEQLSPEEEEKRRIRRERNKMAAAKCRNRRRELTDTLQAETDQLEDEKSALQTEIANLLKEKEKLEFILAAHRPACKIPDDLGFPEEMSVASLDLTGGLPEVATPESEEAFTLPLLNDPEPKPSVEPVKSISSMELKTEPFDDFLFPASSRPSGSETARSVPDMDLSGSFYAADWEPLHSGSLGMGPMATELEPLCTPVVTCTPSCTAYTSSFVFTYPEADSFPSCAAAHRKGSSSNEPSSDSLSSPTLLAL
# T1 sequence (P05412 whole entry): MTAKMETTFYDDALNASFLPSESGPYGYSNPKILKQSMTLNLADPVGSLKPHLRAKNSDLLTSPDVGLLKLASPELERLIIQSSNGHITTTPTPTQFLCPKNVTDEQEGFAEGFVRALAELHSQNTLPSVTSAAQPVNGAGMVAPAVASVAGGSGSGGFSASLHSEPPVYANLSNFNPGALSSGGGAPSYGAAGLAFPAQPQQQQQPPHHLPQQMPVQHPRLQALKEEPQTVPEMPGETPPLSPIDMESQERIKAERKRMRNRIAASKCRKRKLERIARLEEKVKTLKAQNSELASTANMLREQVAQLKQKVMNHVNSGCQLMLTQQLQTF
Compound,effect in FOS:JUN interaction assay [1],growth of the tumoral cell line A549 [2],"cytotoxicity / cytostatic effect ([2]; A549 cells, 15, 30 and 60 µM, 24 and 48 hours of incubation)",Expression levels of RED and SMU1 proteins [3],logP [4],reduction of production of WSN infectious particles ([5]; 24 hpi),reduction of production of WSN infectious particles ([5]; 48 hpi),reduction of production of WSN infectious particles ([5]; 72 hpi),RSV-Firefly signals [6],EC50 [7],inhibition at 60 µM [7],reduction of WSN-Nanoluc signals [8],reduction of NS2 to NS1 mRNA ratio [9],PB2 mRNA splicing [10],splicing of the viral M1 mRNAs [11],"effect in FOS:JUN interaction assay ([1]; specificity control, same concentrations as RED-SMU1 assay)","RSV-Firefly signals ([6]; A549 cells, 7.5 - 60 µM, 24 hpi)",inhibition of viral growth [8]
C#CCCCNc1ncc2cc(-c3cc(OC)cc(OC)c3)c(NC(=O)NC(C)(C)C)nc2n1 [LSP61],none of the two compounds showed any significant effect,inhibits the growth,no cytotoxicity but some cytostatic effect,decreased,4.8,about 1000 fold,~100 fold,~10 fold,only moderate reductions,~15 µM,90%,25 fold,50%,not affected,did not inhibit,,,
COc1cc(OC)cc(-c2cc3cnc(NCc4cn(C5CCN(Cc6ccccc6)CC5)nn4)nc3nc2NC(=O)NC(C)(C)C)c1 [LSP641],,,,,,,,,,,40%,,30%,not affected,did not inhibit,none of the two compounds showed any significant effect,only moderate reductions,
"CCN(CC)CCCCNc1ncc2cc(-c3cc(OC)cc(OC)c3)c(NC(=O)NC(C)(C)C)nc2n1 [PD173074, reference compound]",,,,,,,,,,,,,,,,,,did not inhibit viral growth as efficiently as LSP61
